This passage reports T/C results from PubChem BioAssay AID330 (DTP/NCI, 2004).

Where “and” joins values, the source holds several entries; their conditions need not be identical. Equal entries are not always repeated. Inconclusive results and toxic doses are left out.

This assay deals with P388 leukemia ip, CD2F1 mice, survival T/C. Description: NCI In Vivo Anticancer Drug Screen. Data for tumor model P388 Leukemia (intraperitoneal) in CD2F1 (CDF1) mice. The note with it: endpoint: median survival time, higher = longer survival. In outline: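 Mice carrying the transplanted tumor received test compound or vehicle. Survival was recorded in each group, and the value is the treated-group measurement divided by that of the vehicle-treated control group.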

Setting [1] is: dose: 25.0 mg/kg/injection, schedule: Q01DX009 (ip), vehicle: saline.
[2] abbreviates: dose: 50.0 mg/kg/injection, schedule: Q01DX005 (ip), vehicle: saline.
[3] abbreviates: dose: 50.0 mg/kg/injection, schedule: Q01DX009 (ip), vehicle: saline with Tween-80.
Where [4] appears, read: dose: 100.0 mg/kg/injection, schedule: Q01DX005 (ip), vehicle: saline.
The mark [5] stands for this setting: dose: 100.0 mg/kg/injection, schedule: Q01DX009 (ip), vehicle: saline with Tween-80.
Where [6] appears, read: dose: 200.0 mg/kg/injection, schedule: Q01DX009 (ip), vehicle: saline with Tween-80.
Where [7] appears, read: dose: 50.0 mg/kg/injection, schedule: Q01DX005 (ip), vehicle: saline with Tween-80.
Setting [8] is: dose: 100.0 mg/kg/injection, schedule: Q01DX005 (ip), vehicle: saline with Tween-80.
[9] abbreviates: dose: 200.0 mg/kg/injection, schedule: Q01DX005 (ip), vehicle: saline with Tween-80.
Where [10] appears, read: dose: 50.0 mg/kg/injection, schedule: Q01DX005 (ip), vehicle: Klucel (hydroxypropylcellulose) (HPC).
Where [11] appears, read: dose: 100.0 mg/kg/injection, schedule: Q01DX005 (ip), vehicle: Klucel (hydroxypropylcellulose) (HPC).
[12] abbreviates: dose: 100.0 mg/kg/injection, schedule: Q01DX001 (ip), vehicle: saline with Tween-80.
Setting [13] is: dose: 200.0 mg/kg/injection, schedule: Q01DX001 (ip), vehicle: saline with Tween-80.
[14] abbreviates: dose: 60.0 mg/kg/injection, schedule: Q01DX005 (ip), vehicle: saline with Tween-80.
[15] abbreviates: dose: 120.0 mg/kg/injection, schedule: Q01DX005 (ip), vehicle: saline with Tween-80.
The mark [16] stands for this setting: dose: 240.0 mg/kg/injection, schedule: Q01DX005 (ip), vehicle: saline with Tween-80.

With `CCC(C(=O)O)C(=O)O.[NH-]CC1CCCC[N-]1.[Pt+2]`, the T/C (dose: 25.0 mg/kg/injection, schedule: Q01DX005 (ip), vehicle: saline) was 161 % of control; the T/C under setting [1] was 161 % of control; the T/C under setting [2] is 217 % of control; the T/C under setting [3] was 202 % of control; the T/C (dose: 50.0 mg/kg/injection, schedule: Q01DX009 (ip), vehicle: saline) was 189 % of control; the T/C under setting [4] is 243 % of control and 267 % of control. For the same compound, the T/C (dose: 100.0 mg/kg/injection, schedule: Q01DX009 (ip), vehicle: saline) is 252 % of control; the T/C (dose: 125.0 mg/kg/injection, schedule: Q01DX001 (ip), vehicle: saline) was 161 % of control; the T/C (dose: 250.0 mg/kg/injection, schedule: Q01DX001 (ip), vehicle: saline) is 191 % of control; the T/C (dose: 500.0 mg/kg/injection, schedule: Q01DX001 (ip), vehicle: saline) is 173 % of control and 198 % of control.
As for `O=C(CBr)Nc1c(Cl)cc(Br)cc1Br`, the T/C runs as follows: (dose: 6.25 mg/kg/injection, schedule: Q01DX009 (ip), vehicle: saline) 113 % of control; (dose: 12.5 mg/kg/injection, schedule: Q01DX009 (ip), vehicle: saline) 95 % of control; under setting [1], 98 % of control; under setting [5], 104 % of control; under setting [6], 113 % of control.
Turning to `C/C(=C\C(=O)c1ccc(F)cc1)N1CCN(c2ccc(F)cc2)CC1`, the T/C is, setting by setting: (dose: 50.0 mg/kg/injection, schedule: Q01DX005 (ip), vehicle: other) 96 % of control; (dose: 100.0 mg/kg/injection, schedule: Q01DX005 (ip), vehicle: other) 93 % of control.
Regarding `NC(CC(=O)c1ccc(O)cc1)C(=O)O` (stereo unspecified), the T/C reads like this: (dose: 50.0 mg/kg/injection, schedule: Q01DX009 (ip), vehicle: Klucel (hydroxypropylcellulose) (HPC)) 99 % of control; (dose: 100.0 mg/kg/injection, schedule: Q01DX009 (ip), vehicle: Klucel (hydroxypropylcellulose) (HPC)) 100 % of control; (dose: 200.0 mg/kg/injection, schedule: Q01DX009 (ip), vehicle: Klucel (hydroxypropylcellulose) (HPC)) 92 % of control.
`COC(=O)C(Br)CCCC(Br)C(=O)OC` (stereo unspecified): the T/C is 97 % of control (dose: 25.0 mg/kg/injection, schedule: Q01DX009 (ip), vehicle: distilled water + Tween-80); 106 % of control (dose: 50.0 mg/kg/injection, schedule: Q01DX009 (ip), vehicle: distilled water + Tween-80); 103 % of control (dose: 100.0 mg/kg/injection, schedule: Q01DX009 (ip), vehicle: distilled water + Tween-80); 104 % of control (dose: 200.0 mg/kg/injection, schedule: Q01DX009 (ip), vehicle: distilled water + Tween-80).
Regarding `c1ccc(CN2COc3c4c(c5ccccc5c3C2)CN(Cc2ccccc2)CO4)cc1`, the T/C is, setting by setting: under setting [7], 90 % of control; under setting [8], 103 % of control; under setting [9], 93 % of control.
For the compound `CC1(C)OCC2OC3OC(C)(C)OC3C(OS(C)(=O)=O)C2O1` (stereo unspecified), the T/C under setting [7] is 98 % of control, the T/C under setting [8] is 105 % of control and the T/C under setting [9] is 99 % of control.
Take `CC1(C)CC(NC(=O)c2ccccc2)C(=O)O1` (stereo unspecified): the T/C is, setting by setting: under setting [3], 99 % of control; under setting [5], 100 % of control; under setting [6], 98 % of control.
On to `C[Si]1(C)CC[Si](C)(C)OS(=O)(=O)CS(=O)(=O)O1`, for which the T/C is 100 % of control under setting [10] and 105 % of control under setting [11].
With `O=[N+]([O-])c1cccc2c1nnn2OC1CCCC1`, the T/C is, setting by setting: under setting [12], 102 % of control; under setting [13], 98 % of control.
`C[C@@H](O)c1nc(C(N)=O)cs1`: the T/C is 104 % of control under setting [14], 109 % of control under setting [15] and 106 % of control under setting [16].
On to `C1CC(N2CC2)CCC1N1CC1` (stereo unspecified), for which the T/C reads like this: (dose: 1.56 mg/kg/injection, schedule: Q01DX009 (ip), vehicle: saline) 182 % of control; (dose: 3.12 mg/kg/injection, schedule: Q01DX009 (ip), vehicle: saline) 237 % of control.
In the case of `Cn1c(=O)c2c(ncn2CCN2CCNCC2)n(C)c1=O`, the T/C is 102 % of control (dose: 50.0 mg/kg/injection, schedule: Q01DX005 (ip), vehicle: distilled water + alcohol); 100 % of control (dose: 100.0 mg/kg/injection, schedule: Q01DX005 (ip), vehicle: distilled water + alcohol); 100 % of control (dose: 200.0 mg/kg/injection, schedule: Q01DX005 (ip), vehicle: distilled water + alcohol).
Take `NC(=O)c1ccc2c(=O)c(C(=O)O)c[nH]c2c1`: the T/C runs as follows: (dose: 6.25 mg/kg/injection, schedule: Q01DX009 (ip), vehicle: saline with Tween-80) 92 % of control; (dose: 12.5 mg/kg/injection, schedule: Q01DX009 (ip), vehicle: saline with Tween-80) 95 % of control; (dose: 25.0 mg/kg/injection, schedule: Q01DX009 (ip), vehicle: saline with Tween-80) 94 % of control.
As to `CC12CCCC([N+](=O)[O-])(C1)NC(=O)C2C#N` (stereo unspecified), the T/C was 108 % of control (dose: 60.0 mg/kg/injection, schedule: Q01DX005 (ip), vehicle: Klucel (hydroxypropylcellulose) (HPC)); 95 % of control (dose: 120.0 mg/kg/injection, schedule: Q01DX005 (ip), vehicle: Klucel (hydroxypropylcellulose) (HPC)); 100 % of control (dose: 240.0 mg/kg/injection, schedule: Q01DX005 (ip), vehicle: Klucel (hydroxypropylcellulose) (HPC)).
For `CC(C)(C)N1CCC1C(=O)O` (stereo unspecified), the T/C runs as follows: under setting [3], 92 % of control; under setting [5], 94 % of control; under setting [6], 88 % of control; (dose: 400.0 mg/kg/injection, schedule: Q01DX009 (ip), vehicle: saline with Tween-80) 87 % of control.
Turning to `c1cc2cc(-c3ccc4cc(C5=NCCN5)[nH]c4c3)[nH]c2cc1C1=NCCN1`, the T/C (dose: 25.0 mg/kg/injection, schedule: Q04DX003 (ip), vehicle: saline) is 108 % of control; the T/C (dose: 50.0 mg/kg/injection, schedule: Q04DX003 (ip), vehicle: saline) is 116 % of control; the T/C (dose: 200.0 mg/kg/injection, schedule: Q04DX003 (ip), vehicle: saline) is 184 % of control.
Turning to `O=C(NC12OC3CC(CC(C3)O1)O2)NC12OC3CC(CC(C3)O1)O2`, the T/C is 100 % of control under setting [12]; 100 % of control under setting [13]; 111 % of control (dose: 400.0 mg/kg/injection, schedule: Q01DX001 (ip), vehicle: saline with Tween-80).
With `O=S1(=O)Cc2c3c(c4c(c2C1)CS(=O)(=O)C4)CS(=O)(=O)C3`, the T/C reads like this: (dose: 50.0 mg/kg/injection, schedule: Q04DX002 (ip), vehicle: Klucel (hydroxypropylcellulose) (HPC)) 94 % of control; (dose: 100.0 mg/kg/injection, schedule: Q04DX002 (ip), vehicle: Klucel (hydroxypropylcellulose) (HPC)) 96 % of control; (dose: 200.0 mg/kg/injection, schedule: Q04DX002 (ip), vehicle: Klucel (hydroxypropylcellulose) (HPC)) 98 % of control.
For `CCOC(=O)c1ccc2c(=O)[nH]nc(CO)c2c1`, the T/C is, setting by setting: under setting [7], 104 % of control; under setting [8], 102 % of control; under setting [9], 96 % of control.
As for `O=C1c2ccccc2C(=O)c2c1ccc1nc(Cl)c(=O)[nH]c21`, the T/C was 94 % of control under setting [14], 97 % of control under setting [15] and 94 % of control under setting [16].
`CC(NC(=O)CNC(=O)CN)C(N)=O` (stereo unspecified): the T/C is, setting by setting: under setting [2], 101 % of control; under setting [4], 99 % of control; (dose: 200.0 mg/kg/injection, schedule: Q01DX005 (ip), vehicle: saline) 101 % of control.
For the compound `CCN(/C=N/N(C)S(C)(=O)=O)c1ccccc1`, the T/C reads like this: under setting [10], 104 % of control; under setting [11], 116 % of control; (dose: 200.0 mg/kg/injection, schedule: Q01DX005 (ip), vehicle: Klucel (hydroxypropylcellulose) (HPC)) 118 % of control.
